Reference: article PMC11001197, “The PII protein interacts with the Amt ammonium transport and modulates nitrate/nitrite assimilation in mycobacteria” (Frontiers in Microbiology, 2024)

Target: M. tb PII (GlnB) (Mycobacterium tuberculosis, UniProt P9WN31)
Sequence (P9WQ65 417-477): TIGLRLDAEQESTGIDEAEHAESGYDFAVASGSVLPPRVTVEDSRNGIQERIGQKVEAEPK
Sequence (P9WN31 whole entry): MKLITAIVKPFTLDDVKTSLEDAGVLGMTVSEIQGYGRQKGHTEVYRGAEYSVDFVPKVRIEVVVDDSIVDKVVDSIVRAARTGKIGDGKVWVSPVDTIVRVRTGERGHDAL

With `O=C(O)CCC(=O)C(=O)O` [2-oxoglutarate] the “Ni-NTA pull-down of AmtCTR by His-PII, SDS-PAGE” value was “PII is able to interact with AmtCTR being negatively modulated by 2-OG”.
